Measurements from patent publication US9795140B2, “Molecules having pesticidal utility, and intermediates, compositions, and processes, related thereto” (priority 2015, dated 2017).

Tests used:
Format in all cases: in vivo
[1] = tested on: Green Peach Aphid (Myzus persicae, MYZUPE); test: Bioassay on Green Peach Aphid (GPA), foliar spray on cabbage seedlings; conditions: 72 h, 200 ppm spray on infested cabbage seedlings, three days, Abbott corrected % control, read-out: GPA % Control (or Mortality) rating
Procedure: Certain molecules disclosed in this document were tested against GPA using procedures described in the following example. In the reporting of the results, the “GPA & YFM Rating Table” was used (See Table Section).
Cabbage seedlings grown in 3-inch pots, with 2-3 small (3-5 cm) true leaves, were used as test substrate. The seedlings were infested with 20-50 GPA (wingless adult and nymph stages) one day prior to chemical application. Four pots with individual seedlings were used for each treatment. Test molecules (2 mg) were dissolved in 2 mL of acetone/methanol (1:1) solvent, forming stock solutions of 1000 ppm test molecule. The stock solutions were diluted 5× with 0.025% Tween 20 in water to obtain the solution at 200 ppm test molecule. A hand-held aspirator-type sprayer was used for spraying a solution to both sides of […] leaves until runoff. Reference plants (solvent check) were sprayed with the diluent only containing 20% by volume of acetone/methanol (1:1) solvent. Treated plants were held in a holding room for three days at approximately 25° C. and ambient relative humidity (RH) prior to grading. Evaluation was conducted by counting the number of live aphids per plant under a microscope. Percent control was measured using Abbott's correction formula (W. S. Abbott, “A Method of Computing the Effectiveness of an Insecticide” J. Econ. Entomol. 18 (1925), pp. 265-267) as follows. Corrected % Control=100*(X−Y)/X where X=No. of live aphids on solvent check plants and Y=No. of live aphids on treated plants. The results are indicated in the table entitled “Table ABC: Biological Results” (See Table Section).

[2] = tested on: Beet Armyworm (Spodoptera exigua, LAPHEG); test: Bioassay on Beet Armyworm (BAW), 128-well diet tray assay; conditions: 168 h, 50 μg/cm^2 on artificial diet, second instar larvae, 25° C., five to seven days, average of eight wells, read-out: BAW % Control (or Mortality) rating
In short: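 Test molecule dissolved in acetone-water 90:10 is applied at 50 μg/cm^2 onto artificial diet and allowed to dry. Second instar larvae, one to five per well, are then added, and trays are vented and kept at 25° C. for five to seven days before mortality is scored.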

[3] = tested on: Yellow Fever Mosquito (Aedes aegypti, AEDSAE); test: Bioassay on Yellow Fever Mosquito (YFM) larvae, 96-well plate; conditions: about 1 day-old larvae, room temperature, 3 days, scored on mortality
In short: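 Each well was scored for mortality after 3 days at room temperature under a non-evaporative lid. Test molecules came from DMSO masters (4000 ppm stock) diluted with water/acetone 90:10 and dispensed into six replicate plates, which were then infested with roughly 1-day-old larvae in liver-powder water.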

[4] = tested on: Cabbage Looper (Trichoplusia ni, TRIPNI); test: Bioassay on Cabbage Looper (CL), 128-well diet tray assay; conditions: 168 h, 50 μg/cm^2 on artificial diet, second instar larvae, 25° C., five to seven days, average of eight wells, read-out: CL % Control (or Mortality) rating
In short: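 Percent larval mortality, averaged across eight replicate wells, was scored after 5–7 days at 25 °C with a 14:10 photoperiod. Each well held 1 mL diet surface-treated at 50 μg/cm^2 with test molecule from a 90:10 acetone-water solution, then dried. Wells were infested with one to five second-instar cabbage loopers.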

For CCCCCNC(=O)c1cc(NC(=O)[C@H]2[C@H](c3cc(Cl)cc(Cl)c3)C2(Cl)Cl)ccc1Cl (relative stereo) [F33, trans-2-Chloro-5-(2,2-dichloro-3-(3,5-dichlorophenyl)cyclopropane-1-carboxamido)-N-pentylbenzamide], the mortality at 200 ppm [1] was 0 to 80%, the mortality at 50 µg/cm2 [2] was 50 to 100% and the “YFM % Control (or Mortality) rating” value [3] was “A (80-100)”. For the same compound, the mortality at 50 µg/cm2 [4] was 50 to 100%.

With COc1ccc(CNC(=O)c2cc(NC(=O)[C@H]3[C@H](c4cc(Cl)cc(Cl)c4)C3(Cl)Cl)ccc2Cl)c(OC)c1 (relative stereo) [F34, trans-2-Chloro-5-(2,2-dichloro-3-(3,5-dichlorophenyl)cyclopropane-1-carboxamido)-N-(2,4-dimethoxybenzyl)benzamide] the mortality at 200 ppm [1] was 0%, the mortality at 50 µg/cm2 [2] was 50 to 100% and the “YFM % Control (or Mortality) rating” value [3] was “A (80-100)”. For the same compound, the mortality at 50 µg/cm2 [4] was 50 to 100%.

In the case of O=C(NCC1CC1)c1cc(NC(=O)[C@H]2[C@H](c3cc(Cl)cc(Cl)c3)C2(Cl)Cl)ccc1Cl (relative stereo) [F35, trans-2-Chloro-N-(cyclopropylmethyl)-5-(2,2-dichloro-3-(3,5-dichlorophenyl)cyclopropane-1-carboxamido)benzamide], the mortality at 200 ppm [1] is reported as 80 to 100%, the mortality at 50 µg/cm2 [2] is reported as 50 to 100% and the “YFM % Control (or Mortality) rating” value [3] is reported as “A (80-100)”. For the same compound, the mortality at 50 µg/cm2 [4] was 50 to 100%.

In the case of N#CCCNC(=O)c1cc(NC(=O)[C@H]2[C@H](c3cc(Cl)cc(Cl)c3)C2(Cl)Cl)ccc1Cl (relative stereo) [F37, trans-2-Chloro-N-(2-cyanoethyl)-5-(2,2-dichloro-3-(3,5-dichlorophenyl)cyclopropane-1-carboxamido)benzamide], the mortality at 200 ppm [1] is reported as 0 to 80%, the mortality at 50 µg/cm2 [2] is reported as 50 to 100% and the “YFM % Control (or Mortality) rating” value [3] is reported as “A (80-100)”. For the same compound, the mortality at 50 µg/cm2 [4] was 50 to 100%.

With N#CCCCNC(=O)c1cc(NC(=O)[C@H]2[C@H](c3cc(Cl)cc(Cl)c3)C2(Cl)Cl)ccc1Cl (relative stereo) [F38, trans-2-Chloro-N-(3-cyanopropyl)-5-(2,2-dichloro-3-(3,5-dichlorophenyl)cyclopropane-1-carboxamido)benzamide] the mortality at 200 ppm [1] was 80 to 100%, the mortality at 50 µg/cm2 [2] was 50 to 100% and the “YFM % Control (or Mortality) rating” value [3] was “A (80-100)”. The mortality at 50 µg/cm2 [4] was 50 to 100%.

O=C(NCCCOCC(F)(F)F)c1cc(NC(=O)[C@H]2[C@H](c3cc(Cl)cc(Cl)c3)C2(Cl)Cl)ccc1Cl (relative stereo) [F39, trans-2-Chloro-5-(2,2-dichloro-3-(3,5-dichlorophenyl)cyclopropane-1-carboxamido)-N-(3-(2,2,2-trifluoroethoxy)propyl)benzamide] was tested, and the mortality at 200 ppm [1] was 80 to 100%, the mortality at 50 µg/cm2 [2] was 50 to 100% and the “YFM % Control (or Mortality) rating” value [3] was “A (80-100)”. It also gave a mortality at 50 µg/cm2 [4] of 50 to 100%.

With O=C(NCCC(F)(F)F)c1cc(NC(=O)[C@H]2[C@H](c3cc(Cl)cc(Cl)c3)C2(Cl)Cl)ccc1Cl (relative stereo) [F40, trans-2-Chloro-5-(2,2-dichloro-3-(3,5-dichlorophenyl)cyclopropane-1-carboxamido)-N-(3,3,3-trifluoropropyl)benzamide] the mortality at 200 ppm [1] was 80 to 100%, the mortality at 50 µg/cm2 [2] was 50 to 100% and the “YFM % Control (or Mortality) rating” value [3] was “A (80-100)”. The mortality at 50 µg/cm2 [4] was 50 to 100%.

With O=C(NCc1ccc(C(F)(F)F)cc1)c1cc(NC(=O)[C@H]2[C@H](c3cc(Cl)cc(Cl)c3)C2(Cl)Cl)ccc1Cl (relative stereo) [F41, trans-2-Chloro-5-(2,2-dichloro-3-(3,5-dichlorophenyl)cyclopropane-1-carboxamido)-N-(4-(trifluoromethyl)benzyl)benzamide] the mortality at 200 ppm [1] was 0%, the mortality at 50 µg/cm2 [2] was 50 to 100% and the “YFM % Control (or Mortality) rating” value [3] was “A (80-100)”. For the same compound, the mortality at 50 µg/cm2 [4] was 50 to 100%.

CC(C)(CS(C)(=O)=O)NC(=O)c1cc(NC(=O)[C@H]2[C@H](c3cc(Cl)cc(Cl)c3)C2(Cl)Cl)ccc1Cl (relative stereo) [F42, trans-2-Chloro-5-(2,2-dichloro-3-(3,5-dichlorophenyl)cyclopropane-1-carboxamido)-N-(2-methyl-1-(methylsulfonyl)propan-2-yl)benzamide] was tested, and the mortality at 200 ppm [1] was 0 to 80%, the mortality at 50 µg/cm2 [2] was 50 to 100% and the “YFM % Control (or Mortality) rating” value [3] was “A (80-100)”. The mortality at 50 µg/cm2 [4] was 50 to 100%.

O=C(NCCCF)c1cc(NC(=O)[C@H]2[C@H](c3cc(Cl)cc(Cl)c3)C2(Cl)Cl)ccc1Cl (relative stereo) [F44, trans-2-Chloro-5-(2,2-dichloro-3-(3,5-dichlorophenyl)cyclopropane-1-carboxamido)-N-(3-fluoropropyl)benzamide] was tested, and the mortality at 200 ppm [1] was 80 to 100%, the mortality at 50 µg/cm2 [2] was 50 to 100% and the “YFM % Control (or Mortality) rating” value [3] was “A (80-100)”. The mortality at 50 µg/cm2 [4] was 50 to 100%.

For CCCCNC(=O)c1cc(NC(=O)[C@H]2[C@H](c3cc(Cl)cc(Cl)c3)C2(Cl)Cl)ccc1Cl (relative stereo) [F45, trans-N-Butyl-2-chloro-5-(2,2-dichloro-3-(3,5-dichlorophenyl)cyclopropane-1-carboxamido)benzamide], the mortality at 200 ppm [1] was 80 to 100%, the mortality at 50 µg/cm2 [2] was 50 to 100% and the “YFM % Control (or Mortality) rating” value [3] was “A (80-100)”. The mortality at 50 µg/cm2 [4] was 50 to 100%.

With CCNC(=O)c1cc(NC(=O)[C@H]2[C@H](c3cc(Cl)cc(Cl)c3)C2(Cl)Cl)ccc1Cl (relative stereo) [F46, trans-2-Chloro-5-(2,2-dichloro-3-(3,5-dichlorophenyl)cyclopropane-1-carboxamido)-N-ethylbenzamide] the mortality at 200 ppm [1] was 80 to 100%, the mortality at 50 µg/cm2 [2] was 50 to 100% and the “YFM % Control (or Mortality) rating” value [3] was “A (80-100)”. The mortality at 50 µg/cm2 [4] was 50 to 100%.

For C#CCNC(=O)c1cc(NC(=O)[C@H]2[C@H](c3cc(Cl)cc(Cl)c3)C2(Cl)Cl)ccc1Cl (relative stereo) [F47, trans-2-Chloro-5-(2,2-dichloro-3-(3,5-dichlorophenyl)cyclopropane-1-carboxamido)-N-(prop-2-yn-1-yl)benzamide], the mortality at 200 ppm [1] was 80 to 100%, the mortality at 50 µg/cm2 [2] was 50 to 100% and the “YFM % Control (or Mortality) rating” value [3] was “A (80-100)”. For the same compound, the mortality at 50 µg/cm2 [4] was 50 to 100%.

For O=C(NCC(F)F)c1cc(NC(=O)[C@H]2[C@H](c3cc(Cl)cc(Cl)c3)C2(Cl)Cl)ccc1Cl (relative stereo) [F48, trans-2-Chloro-5-(2,2-dichloro-3-(3,5-dichlorophenyl)cyclopropane-1-carboxamido)-N-(2,2-difluoroethyl)benzamide], the mortality at 200 ppm [1] was 80 to 100%, the mortality at 50 µg/cm2 [2] was 50 to 100% and the “YFM % Control (or Mortality) rating” value [3] was “B (More than 0-Less than 80)”. It also gave a mortality at 50 µg/cm2 [4] of 50 to 100%.

For O=C(NCC(F)(F)C(F)(F)F)c1cc(NC(=O)[C@H]2[C@H](c3cc(Cl)cc(Cl)c3)C2(Cl)Cl)ccc1Cl (relative stereo) [F49, trans-2-Chloro-5-(2,2-dichloro-3-(3,5-dichlorophenyl)cyclopropane-1-carboxamido)-N-(2,2,3,3,3-pentafluoropropyl)benzamide], the mortality at 200 ppm [1] was 80 to 100%, the mortality at 50 µg/cm2 [2] was 50 to 100% and the “YFM % Control (or Mortality) rating” value [3] was “A (80-100)”. For the same compound, the mortality at 50 µg/cm2 [4] was 50 to 100%.

For CC(=O)NCCNC(=O)c1cc(NC(=O)[C@H]2[C@H](c3cc(Cl)cc(Cl)c3)C2(Cl)Cl)ccc1Cl (relative stereo) [F55, trans-N-(2-Acetamidoethyl)-2-chloro-5-(2,2-dichloro-3-(3,5-dichlorophenyl)cyclopropane-1-carboxamido)benzamide], the mortality at 200 ppm [1] was 80 to 100%, the mortality at 50 µg/cm2 [2] was 50 to 100% and the “YFM % Control (or Mortality) rating” value [3] was “B (More than 0-Less than 80)”. For the same compound, the mortality at 50 µg/cm2 [4] was 50 to 100%.
